T/C data for 20 compounds are collected here from PubChem BioAssay AID256 (DTP/NCI, 2004).

The test system of this experiment is CD2F1 mice, L1210 leukemia ip, survival T/C. Put plainly: NCI In Vivo Anticancer Drug Screen. Data for tumor model L1210 Leukemia (intraperitoneal) in CD2F1 (CDF1) mice. The note with it: higher = longer survival. The procedure, abridged: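 Ratio T/C, where T is the treated-group value and C the vehicle-dosed control value, from mice implanted with a transplantable tumor.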

The mark [1] stands for this setting: endpoint: mean survival time, dose: 25.0 mg/kg/injection, schedule: Q04DX003 (ip), vehicle: saline.
[2] abbreviates: endpoint: mean survival time, dose: 50.0 mg/kg/injection, schedule: Q04DX003 (ip), vehicle: saline.
The mark [3] stands for this setting: endpoint: mean survival time, dose: 100.0 mg/kg/injection, schedule: Q01DX009 (ip), vehicle: saline with Tween-80.
[4] abbreviates: endpoint: mean survival time, dose: 100.0 mg/kg/injection, schedule: Q04DX003 (ip), vehicle: saline with Tween-80.
The mark [5] stands for this setting: endpoint: mean survival time, dose: 200.0 mg/kg/injection, schedule: Q01DX009 (ip), vehicle: saline with Tween-80.
Where [6] appears, read: endpoint: mean survival time, dose: 200.0 mg/kg/injection, schedule: Q04DX003 (ip), vehicle: saline with Tween-80.
[7] abbreviates: endpoint: mean survival time, dose: 400.0 mg/kg/injection, schedule: Q01DX009 (ip), vehicle: saline with Tween-80.
Setting [8] is: endpoint: mean survival time, dose: 400.0 mg/kg/injection, schedule: Q04DX003 (ip), vehicle: saline with Tween-80.
The mark [9] stands for this setting: endpoint: mean survival time, dose: 100.0 mg/kg/injection, schedule: Q01DX001 (ip), vehicle: saline.
[10] abbreviates: endpoint: mean survival time, dose: 200.0 mg/kg/injection, schedule: Q01DX001 (ip), vehicle: saline.
Setting [11] is: endpoint: mean survival time, dose: 400.0 mg/kg/injection, schedule: Q01DX001 (ip), vehicle: saline.

SMILES strings stand for the structures. Several values for one entry are separate records, joined by “and”; a condition that tells them apart may be missing. Equal entries are not always repeated. Toxic doses and inconclusive results are not listed.

Consider `Nc1nc(=O)n(CCCOc2cccc(Cl)c2)cc1-c1ccc(Cl)c(Cl)c1`, for which the T/C runs as follows: (endpoint: mean survival time, dose: 100.0 mg/kg/injection, schedule: Q01DX001 (ip), vehicle: saline with Tween-80) 96 % of control; (endpoint: mean survival time, dose: 200.0 mg/kg/injection, schedule: Q01DX001 (ip), vehicle: saline with Tween-80) 89 % of control; (endpoint: mean survival time, dose: 400.0 mg/kg/injection, schedule: Q01DX001 (ip), vehicle: saline with Tween-80) 91 % of control.

As to `O=S(=O)(O)Sc1ccccc1`, the T/C is 97 % of control under setting [1]; 97 % of control under setting [2]; 98 % of control (endpoint: mean survival time, dose: 100.0 mg/kg/injection, schedule: Q04DX003 (ip), vehicle: saline).

`O=C(O)c1ccccc1C(=O)c1ccc(Cl)cc1`: the T/C was 100 % of control under setting [3]; 94 % of control under setting [4]; 110 % of control under setting [5]; 97 % of control under setting [6]; 108 % of control under setting [7]; 95 % of control under setting [8].

With `CCC(=O)Oc1ccc(C2N(Cc3ccc(N(C)C)cc3)CCCN2Cc2ccc(N(C)C)cc2)cc1`, the T/C reads like this: under setting [4], 103 % of control; under setting [5], 89 % of control; under setting [6], 92 % of control.

Turning to `CCOP(=S)(OCC)N1c2ccccc2Sc2ccccc21`, the T/C by setting is: (endpoint: mean survival time, dose: 50.0 mg/kg/injection, schedule: Q01DX009 (ip), vehicle: saline with Tween-80) 95 % of control; under setting [3], 90 % of control.

On to `N#CC12CCCC(=O)N1C=Cc1ccccc12` (centres undefined), for which the T/C is 107 % of control under setting [9], 100 % of control under setting [10] and 97 % of control under setting [11].

Take `CCOC(=O)C1C(=O)N(C)C(=O)N1c1ccccc1` (centres undefined): the T/C is 98 % of control (endpoint: mean survival time, dose: 12.5 mg/kg/injection, schedule: Q01DX009 (ip), vehicle: other); 90 % of control (endpoint: mean survival time, dose: 25.0 mg/kg/injection, schedule: Q01DX009 (ip), vehicle: other); 87 % of control (endpoint: mean survival time, dose: 50.0 mg/kg/injection, schedule: Q01DX009 (ip), vehicle: other); 93 % of control (endpoint: mean survival time, dose: 100.0 mg/kg/injection, schedule: Q01DX009 (ip), vehicle: other); 87 % of control (endpoint: mean survival time, dose: 200.0 mg/kg/injection, schedule: Q01DX009 (ip), vehicle: other).

As to `CCC1(O)C(=O)OCc2c1cc1n(c2=O)Cc2cc3ccc(CN)cc3nc2-1` (centres undefined), the T/C is 109 % of control (endpoint: median survival time, dose: 10.0 mg/kg/injection, schedule: Q04DX002 (ip), vehicle: saline with Tween-80); 102 % of control (endpoint: median survival time, dose: 10.0 mg/kg/injection, schedule: Q04DX002 (ip), vehicle: water); 109 % of control (endpoint: median survival time, dose: 20.0 mg/kg/injection, schedule: Q04DX002 (ip), vehicle: saline with Tween-80); 102 % of control (endpoint: median survival time, dose: 20.0 mg/kg/injection, schedule: Q04DX002 (ip), vehicle: water); 106 % of control (endpoint: median survival time, dose: 40.0 mg/kg/injection, schedule: Q04DX002 (ip), vehicle: saline with Tween-80); 107 % of control (endpoint: median survival time, dose: 40.0 mg/kg/injection, schedule: Q04DX002 (ip), vehicle: water). Further, the T/C runs as follows: (endpoint: median survival time, dose: 80.0 mg/kg/injection, schedule: Q04DX002 (ip), vehicle: saline with Tween-80) 113 % of control; (endpoint: median survival time, dose: 80.0 mg/kg/injection, schedule: Q04DX002 (ip), vehicle: water) 108 % of control.

Regarding `Cc1cc(C)c(C)cc1C`, the T/C under setting [3] was 92 % of control; the T/C under setting [4] was 96 % of control; the T/C under setting [5] was 96 % of control; the T/C under setting [6] is 100 % of control; the T/C under setting [7] was 88 % of control; the T/C under setting [8] was 94 % of control.

For the compound `c1ccc(Cc2ccccc2-c2ccccc2)cc1`, the T/C reads like this: (endpoint: mean survival time, dose: 100.0 mg/kg/injection, schedule: Q04DX003 (ip), vehicle: Klucel (hydroxypropylcellulose) (HPC)) 89 % of control; (endpoint: mean survival time, dose: 200.0 mg/kg/injection, schedule: Q04DX003 (ip), vehicle: Klucel (hydroxypropylcellulose) (HPC)) 89 % of control; (endpoint: mean survival time, dose: 400.0 mg/kg/injection, schedule: Q04DX003 (ip), vehicle: Klucel (hydroxypropylcellulose) (HPC)) 93 % of control.

Consider `CCC1(OC(=O)CN2CCN(CCCO)CC2)C(=O)OCc2c1cc1n(c2=O)Cc2cc3ccccc3nc2-1` (centres undefined), for which the T/C is, setting by setting: (endpoint: median survival time, dose: 6.25 mg/kg/injection, schedule: Q04DX002 (ip), vehicle: water) 106 % of control; (endpoint: median survival time, dose: 12.5 mg/kg/injection, schedule: Q04DX002 (ip), vehicle: water) 107 % of control and 108 % of control; (endpoint: median survival time, dose: 25.0 mg/kg/injection, schedule: Q04DX002 (ip), vehicle: water) 121 % of control and 111 % of control; (endpoint: median survival time, dose: 50.0 mg/kg/injection, schedule: Q04DX002 (ip), vehicle: water) 120 % of control; (endpoint: median survival time, dose: 100.0 mg/kg/injection, schedule: Q04DX002 (ip), vehicle: water) 170 % of control.

Regarding `O=C(O)CCCCCCCCCCCCCCCCCCCCC(=O)O`, the T/C reads like this: under setting [4], 87 % of control; under setting [6], 102 % of control; under setting [8], 87 % of control.

In the case of `CCO[Si](C)(CCCOCC1CO1)OCC` (centres undefined), the T/C runs as follows: (endpoint: mean survival time, dose: 50.0 mg/kg/injection, schedule: Q01DX009 (ip), vehicle: Klucel (hydroxypropylcellulose) (HPC)) 102 % of control; (endpoint: mean survival time, dose: 100.0 mg/kg/injection, schedule: Q01DX009 (ip), vehicle: Klucel (hydroxypropylcellulose) (HPC)) 100 % of control; (endpoint: mean survival time, dose: 200.0 mg/kg/injection, schedule: Q01DX009 (ip), vehicle: Klucel (hydroxypropylcellulose) (HPC)) 94 % of control.

With `COC(=O)C1C(C(C)=O)C2C(=O)C3C(C(=O)OC)C(C(=O)OC)C3C(=O)C12` (centres undefined), the T/C was 93 % of control (endpoint: mean survival time, dose: 25.0 mg/kg/injection, schedule: Q04DX002 (ip), vehicle: saline with Tween-80); 96 % of control (endpoint: mean survival time, dose: 50.0 mg/kg/injection, schedule: Q04DX002 (ip), vehicle: saline with Tween-80); 100 % of control (endpoint: mean survival time, dose: 100.0 mg/kg/injection, schedule: Q04DX002 (ip), vehicle: saline with Tween-80); 96 % of control (endpoint: mean survival time, dose: 200.0 mg/kg/injection, schedule: Q04DX002 (ip), vehicle: saline with Tween-80).

As to `Cc1ccc(S(=O)(=O)n2nc(C3OC(CO)C(O)C3O)c(O)c2C(N)=O)cc1` (centres undefined), the T/C (endpoint: median survival time, dose: 44.6 mg/kg/injection, schedule: Q01DX005 (ip), vehicle: saline) is 120 % of control and the T/C (endpoint: median survival time, dose: 89.3 mg/kg/injection, schedule: Q01DX005 (ip), vehicle: saline) was 120 % of control.

`O=P1(N(CCCl)CCCl)OCCC(c2ccccc2)N1Cl` (centres undefined): the T/C (endpoint: mean survival time, dose: 43.75 mg/kg/injection, schedule: Q01DX001 (ip), vehicle: distilled water + Tween-80) was 106 % of control; the T/C (endpoint: mean survival time, dose: 87.5 mg/kg/injection, schedule: Q01DX001 (ip), vehicle: distilled water + Tween-80) is 103 % of control; the T/C (endpoint: mean survival time, dose: 175.0 mg/kg/injection, schedule: Q01DX001 (ip), vehicle: distilled water + Tween-80) was 106 % of control; the T/C (endpoint: mean survival time, dose: 350.0 mg/kg/injection, schedule: Q01DX001 (ip), vehicle: distilled water + Tween-80) was 110 % of control.

For the compound `COc1cc(C(=O)C=[N+]=[N-])cc(OC)c1OC(C)=O`, the T/C by setting is: under setting [9], 91 % of control; under setting [10], 96 % of control; under setting [11], 110 % of control.

With `Nc1nc(N)c2nc(CNc3ccc(C(=O)NC(CCC(=O)O)C(=O)O)cc3)ccc2n1` (centres undefined), the T/C by setting is: (endpoint: mean survival time, dose: 15.63 micrograms/kg/injection, schedule: Q01DX005 (ip), vehicle: sodium bicarbonate) 118 % of control; (endpoint: mean survival time, dose: 31.25 micrograms/kg/injection, schedule: Q01DX005 (ip), vehicle: sodium bicarbonate) 118 % of control; (endpoint: mean survival time, dose: 62.5 micrograms/kg/injection, schedule: Q01DX005 (ip), vehicle: sodium bicarbonate) 120 % of control and 110 % of control; (endpoint: mean survival time, dose: 125.0 micrograms/kg/injection, schedule: Q01DX005 (ip), vehicle: sodium bicarbonate) 113 % of control.

Regarding `NC(N)=NCc1ccccc1`, the T/C is 106 % of control (endpoint: mean survival time, dose: 10.0 mg/kg/injection, schedule: Q04DX003 (ip), vehicle: saline); 100 % of control (endpoint: mean survival time, dose: 12.5 mg/kg/injection, schedule: Q04DX003 (ip), vehicle: saline); 103 % of control (endpoint: mean survival time, dose: 20.0 mg/kg/injection, schedule: Q04DX003 (ip), vehicle: saline); 96 % of control under setting [1]; 100 % of control (endpoint: mean survival time, dose: 40.0 mg/kg/injection, schedule: Q04DX003 (ip), vehicle: saline); 97 % of control and 100 % of control under setting [2].

As for `N#CC1(OC2OC(CO)C(O)C(O)C2O)C=CC(O)C1O` (centres undefined), the T/C reads like this: under setting [9], 101 % of control; under setting [10], 101 % of control; under setting [11], 98 % of control.
